Calls of active or inactive are those of the source. Some results are limits rather than exact numbers.

Test [1] deals with T1, Oxysterols receptor LXR-beta (Homo sapiens, UniProt P55055).
T1 sequence (P55055 whole entry): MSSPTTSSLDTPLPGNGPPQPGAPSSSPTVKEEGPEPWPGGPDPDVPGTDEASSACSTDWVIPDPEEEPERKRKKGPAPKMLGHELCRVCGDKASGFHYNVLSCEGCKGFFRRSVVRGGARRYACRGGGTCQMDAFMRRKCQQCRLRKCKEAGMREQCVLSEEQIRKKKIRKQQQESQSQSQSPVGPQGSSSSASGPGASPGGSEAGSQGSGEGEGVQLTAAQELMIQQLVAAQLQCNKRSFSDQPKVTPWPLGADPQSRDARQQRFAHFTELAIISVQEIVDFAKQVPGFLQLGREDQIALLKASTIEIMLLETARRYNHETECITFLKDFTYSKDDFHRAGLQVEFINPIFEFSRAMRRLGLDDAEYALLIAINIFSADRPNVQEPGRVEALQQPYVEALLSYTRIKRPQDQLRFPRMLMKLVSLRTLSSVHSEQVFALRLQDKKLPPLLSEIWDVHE
It counts as functional, cell-based.

Test [2] deals with Luciferin 4-monooxygenase (Photinus pyralis, UniProt P08659). Description: Counter Screen for Luciferase-based Assay Positives. [Related pubchem assays: 620, 618, 411 ].
Sequence of Luciferin 4-monooxygenase (P08659 whole entry, the tested form may be a part): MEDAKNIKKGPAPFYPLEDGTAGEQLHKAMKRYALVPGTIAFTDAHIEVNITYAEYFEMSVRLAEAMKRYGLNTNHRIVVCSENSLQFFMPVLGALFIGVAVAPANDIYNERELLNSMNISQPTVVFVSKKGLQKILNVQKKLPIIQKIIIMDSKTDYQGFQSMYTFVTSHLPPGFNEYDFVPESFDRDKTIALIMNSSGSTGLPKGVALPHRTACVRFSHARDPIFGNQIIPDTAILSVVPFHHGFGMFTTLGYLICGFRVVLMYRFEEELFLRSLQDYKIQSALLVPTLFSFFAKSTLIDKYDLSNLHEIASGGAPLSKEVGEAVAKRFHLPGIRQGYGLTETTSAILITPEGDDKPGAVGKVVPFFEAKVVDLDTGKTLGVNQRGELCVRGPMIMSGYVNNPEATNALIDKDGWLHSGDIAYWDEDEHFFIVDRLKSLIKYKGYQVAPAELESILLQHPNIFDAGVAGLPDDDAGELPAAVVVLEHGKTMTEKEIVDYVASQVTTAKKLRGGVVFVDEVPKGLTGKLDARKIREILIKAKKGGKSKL
In test [3] the target is T1, Oxysterols receptor LXR-beta. Description: LXR agonists, Gal4 luciferase reporter, dose response, counter-screen for ssDAF-12 agonist project, cell-based, luminescence, HEK293, S. stercoralis campaign (AID 720737). Format: functional. The conditions noted are these: read-out: IC50 (the source's name). In general terms: A reporter such as luciferase makes a cellular process visible.

Test [4] in a line: Luminescence-based cell-based high throughput dose response assay to identify activators of the DAF-12 from the parasite S. stercoralis (ssDAF-12). It counts as functional.
The subject of a further test is HT-1080. Description: HT1080 cell viability loss – fluorescence readout (AID 620). It counts as functional, cell-based. The conditions noted are these: Homo sapiens.
Test [5] addresses T2, Fibrinogen beta chain (Homo sapiens, UniProt P02675). Description: Fluorescence polarization-based biochemical high throughput dose response assay to identify inhibitors that disrupt the binding of a cyclic peptide (Tn7) to the fibrin proteolytic product D-Dimer and fragment E complex [DD(E )].
For another test, the target named is T3, Protein skinhead-1 (Caenorhabditis elegans, UniProt P34707).
T3 sequence (P34707 whole entry): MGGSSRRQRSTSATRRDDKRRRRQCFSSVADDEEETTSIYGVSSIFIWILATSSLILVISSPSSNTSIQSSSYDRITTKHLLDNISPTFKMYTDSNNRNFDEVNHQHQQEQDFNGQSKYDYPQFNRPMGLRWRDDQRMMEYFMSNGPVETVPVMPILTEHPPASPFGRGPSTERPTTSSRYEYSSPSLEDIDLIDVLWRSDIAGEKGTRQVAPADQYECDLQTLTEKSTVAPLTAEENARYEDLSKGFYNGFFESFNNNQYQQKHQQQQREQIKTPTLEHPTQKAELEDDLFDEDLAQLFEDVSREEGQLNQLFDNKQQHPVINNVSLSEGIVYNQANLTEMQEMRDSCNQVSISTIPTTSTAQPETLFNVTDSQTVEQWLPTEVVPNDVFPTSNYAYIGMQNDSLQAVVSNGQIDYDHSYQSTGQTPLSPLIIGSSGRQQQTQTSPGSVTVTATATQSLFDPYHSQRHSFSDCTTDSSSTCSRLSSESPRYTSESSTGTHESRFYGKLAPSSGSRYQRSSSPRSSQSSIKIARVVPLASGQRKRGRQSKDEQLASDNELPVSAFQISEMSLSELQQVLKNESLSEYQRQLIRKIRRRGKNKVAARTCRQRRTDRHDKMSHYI
It counts as functional.

Test [6] concerns the target T2, Fibrinogen beta chain. The test can be described thus: Fluorescence polarization-based biochemical high throughput dose response assay to identify inhibitors that disrupt the binding of a cyclic peptide (Tn6) to the fibrin proteolytic product D-Dimer and fragment E complex [DD(E )].
A short description of test [7]: viability of HCT116 lacking mutant beta-catenin – cell-based, human colon tumor, dose response (AID 1045).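 Further: HCT116 colon tumor cells with beta catenin knocked out; cells exposed to compound for 60 hours.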 Format: functional.
Test [8] is described as follows: viability loss in HepG2 hepatoma cells – cell-based, cherry-picks, set 5, cytotoxicity control, dose response (AID 1053118). It counts as functional.
Test [9] concerns A-375. The test can be described thus: MITF: Counter assay: A375 proliferation Measured in Cell-Based System Using Plate Reader - 2084-03_Inhibitor_Dose_DryPowder_Activity. [Related pubchem assays (depositor defined):AID488944]. The conditions noted are these: Homo sapiens. Format: functional.
Test [10] deals with A-375. Description: proliferation inhibition in MITF-low A375 cells – cell-based, cherry-pick samples, set 2, counter-screen for MITF modulator project, dose response (AID 540335). Format: functional. To be noted: Homo sapiens. On the technique in general: A counterscreen serves to expose hits that act by an unwanted route or on another target.
Test [11] has as its target T4, Microphthalmia-associated transcription factor (Homo sapiens, UniProt O75030).
T4 sequence (O75030 whole entry): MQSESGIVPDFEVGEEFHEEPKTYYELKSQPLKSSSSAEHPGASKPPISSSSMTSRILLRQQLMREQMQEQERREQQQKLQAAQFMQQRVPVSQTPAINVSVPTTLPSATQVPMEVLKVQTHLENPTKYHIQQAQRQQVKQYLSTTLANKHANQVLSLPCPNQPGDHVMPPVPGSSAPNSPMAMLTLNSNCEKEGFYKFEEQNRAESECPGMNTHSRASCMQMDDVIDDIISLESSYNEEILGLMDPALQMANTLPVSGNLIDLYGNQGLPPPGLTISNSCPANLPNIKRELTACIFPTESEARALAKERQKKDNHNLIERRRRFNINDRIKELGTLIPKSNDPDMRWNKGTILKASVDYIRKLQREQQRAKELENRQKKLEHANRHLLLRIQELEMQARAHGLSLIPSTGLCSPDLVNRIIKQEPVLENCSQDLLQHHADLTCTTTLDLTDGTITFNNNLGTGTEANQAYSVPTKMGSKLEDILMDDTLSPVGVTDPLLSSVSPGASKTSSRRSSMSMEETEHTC
The test can be described thus: reducers of TRPM1 reporter luminescence, concentration series – cell-based, SK-MEL-5, cherry-picked, set 3, MITF inhibitor project, dose response (AID 493073).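 Further: SK-MEL-5 melanoma cells with luciferase driven by the MITF target TRPM1 promoter.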 Format: functional.

The nature of test [12]: viability of PTEN-deleted HCT116 cells – cell-based, HCT116 PTEN knockout, dose response (AID 1047).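 Further: HCT116 colon tumor cells with PTEN knocked out; cells exposed to compound for 60 hours before readout; potency for loss of cell viability measured by luminescence.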 Format: functional.
Test [13] is described as follows: non-specific 3'UTR reporter inhibition in Clone20-Shn3RL – cell-based, Renilla luciferase, cherry-picked, counter-screen for Shn3 inhibitor project, dose response (AID 624133). Format: functional.
Test [14] in a line: loss of viability in HepG2 cells – cell-based, CellTiter-Glo, cherry-picked, cytotoxicity control for Shn3 inhibitor project, dose response (AID 624134). It counts as functional.
Test [15] is described as follows: blockers of FN fibrillogenesis by fibroblasts – AH1F cells, Alexa488-FN fluorescence, cherry-picks, dose response (AID 1035475). It counts as functional, cell-based.
A short description of test [16]: reduction of Shn3 3'UTR-driven luciferase in osteoblasts – cell-based, Clone20 osteoblasts, firefly luciferase, cherry-picked, dose response (AID 624132).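 Further: firefly luciferase luminescence from reporter carrying the Shn3 3'UTR in osteoblasts.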 It counts as functional.
The target in another test is Protein Wnt-3a (Mus musculus, UniProt P27467). Description: antagonism of Wnt3a pathway luciferase reporter – Wnt-LIGHT cells, luminescence, selectivity assay for Gli-SUFU antagonist project, dose response (AID 651570).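 Further: Wnt-LIGHT reporter cells stimulated with conditioned medium from Wnt3a-producing cells.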 Format: functional. To be noted: read-out: IC50_Mean.
Sequence of Protein Wnt-3a (P27467 whole entry): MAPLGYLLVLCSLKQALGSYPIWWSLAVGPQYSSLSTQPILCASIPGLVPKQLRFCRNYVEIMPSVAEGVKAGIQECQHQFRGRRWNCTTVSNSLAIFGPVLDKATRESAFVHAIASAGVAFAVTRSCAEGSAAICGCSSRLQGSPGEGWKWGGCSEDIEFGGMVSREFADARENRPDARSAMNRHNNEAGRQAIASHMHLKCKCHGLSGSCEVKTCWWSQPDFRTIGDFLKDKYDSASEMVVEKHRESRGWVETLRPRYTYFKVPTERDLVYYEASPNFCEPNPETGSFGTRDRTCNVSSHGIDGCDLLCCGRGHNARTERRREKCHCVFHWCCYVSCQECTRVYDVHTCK
Test [17] can be described thus: Shn3 3'UTR reporter signal decrease – cell-based, Clone20 osteoblasts, firefly luciferase, cherry-pick, set 2, Schnurri-3 inhibitor project, dose response (AID 720490).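 Further: actives lower the luminescence signal as inhibitors.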 Format: functional.

T2 sequence (P02675 whole entry, the tested form may be a part): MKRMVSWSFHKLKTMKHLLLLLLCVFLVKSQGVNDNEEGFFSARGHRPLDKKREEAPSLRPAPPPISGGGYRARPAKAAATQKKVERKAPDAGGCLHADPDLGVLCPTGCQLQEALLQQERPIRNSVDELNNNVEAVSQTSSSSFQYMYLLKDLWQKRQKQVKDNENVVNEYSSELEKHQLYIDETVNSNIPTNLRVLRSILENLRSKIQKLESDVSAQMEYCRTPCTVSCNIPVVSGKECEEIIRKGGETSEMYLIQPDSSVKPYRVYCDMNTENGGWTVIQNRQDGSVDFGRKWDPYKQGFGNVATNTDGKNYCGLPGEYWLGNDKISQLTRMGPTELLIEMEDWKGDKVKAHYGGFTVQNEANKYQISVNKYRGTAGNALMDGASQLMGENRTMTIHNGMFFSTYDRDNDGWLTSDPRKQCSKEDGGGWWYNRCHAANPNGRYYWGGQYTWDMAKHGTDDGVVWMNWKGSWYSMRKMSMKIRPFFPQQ

For `O=C1c2ccccc2C(=O)C1c1nccc2ccccc12`, the EC50 in “cells” is > 67.5 µM (inactive); in [1] it was > 67.5 µM (inactive); in [2] it was 1.3 µM (active); in test [3], > 67.5 µM (inactive); in the test with HT-1080, > 50 µM (not active). For the same molecule, the IC50 in [4] is > 67.5 µM (inactive).

As for `c1ccc2c(c1)CCN(C1=Nc3cccc4cccc1c34)C2`, the IC50 on Fibrinogen beta chain [5] was > 83.3 µM (inactive); on Protein skinhead-1 it was > 100 µM (inactive); on Fibrinogen beta chain [6], 46.1 µM (inactive).

One may read the AC50 as the concentration giving half of the maximal activity seen. Turning to `Cn1cc([N+](=O)[O-])c(C(=O)Nc2cc(Oc3ccccc3)cc([N+](=O)[O-])c2)n1`, the EC50 in test [7] is 309 nM (active); in test [12], 389 nM (active). The half-maximal activity concentration (AC50) in test [8] is 21.9 µM (active); in the test with A-375 [9], > 35 µM (active); in the test on A-375 [10], > 35 µM (active); in [11] it was 12.4 µM (active); in test [13], 2.82 µM (active); in [14], 19.8 µM (active). The AC50 in [15] was 12.3 µM (active); in test [16], 5.41 µM (active).

With `CC(C)Cn1c(N)c(C(=O)COC(=O)C2Cc3ccccc3CN2S(C)(=O)=O)c(=O)n(C)c1=O` (centres undefined), the AC50 in test [13] was 4.76 µM (active); in test [14], > 70 µM (inactive); in test [17], 897 nM (active); in [16], 0.72 µM (active). On Protein Wnt-3a, the IC50 is 6.31 µM (active).

The record behind these values is ChEMBL document CHEMBL1201862, “PubChem BioAssay data set” (2004).
